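Method: 48-hour compound exposure of cells in 96-well plates, five concentrations, linear interpolation of endpoints. The concentration for 50% growth inhibition is given as GI50. TGI marks complete inhibition of growth.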
What was measured:
Experiment in all cases: growth of human tumour cells (NCI), 48 h
786-0 renal = tested on: 786-0 renal
A498 renal = tested on: A498 renal
A549 NSCLC = tested on: A549 NSCLC
ACHN renal = tested on: ACHN renal
BT-549 breast = tested on: BT-549 breast
CAKI-1 renal = tested on: CAKI-1 renal
CCRF-CEM leukemia = tested on: CCRF-CEM leukemia
COLO 205 colon = tested on: COLO 205 colon
DU-145 prostate = tested on: DU-145 prostate
HCC-2998 colon = tested on: HCC-2998 colon
HCT-116 colon = tested on: HCT-116 colon
HCT-15 colon = tested on: HCT-15 colon
HL-60(TB) leukemia = tested on: HL-60(TB) leukemia
HOP-62 NSCLC = tested on: HOP-62 NSCLC
HOP-92 NSCLC = tested on: HOP-92 NSCLC
HS 578T breast = tested on: HS 578T breast
HT29 colon = tested on: HT29 colon
IGROV1 ovarian = tested on: IGROV1 ovarian
K-562 leukemia = tested on: K-562 leukemia
KM12 colon = tested on: KM12 colon
LOX IMVI melanoma = tested on: LOX IMVI melanoma
M14 melanoma = tested on: M14 melanoma
MALME-3M melanoma = tested on: MALME-3M melanoma
MCF7 breast = tested on: MCF7 breast
MDA-MB-231 breast = tested on: MDA-MB-231 breast
MDA-MB-435 = tested on: MDA-MB-435
MOLT-4 leukemia = tested on: MOLT-4 leukemia
NCI-H226 lung = tested on: NCI-H226 lung
NCI-H23 lung = tested on: NCI-H23 lung
NCI-H460 lung = tested on: NCI-H460 lung
NCI-H522 lung = tested on: NCI-H522 lung
NCI/ADR-RES ovarian = tested on: NCI/ADR-RES ovarian
OVCAR-3 ovarian = tested on: OVCAR-3 ovarian
OVCAR-4 ovarian = tested on: OVCAR-4 ovarian
OVCAR-5 ovarian = tested on: OVCAR-5 ovarian
OVCAR-8 ovarian = tested on: OVCAR-8 ovarian
PC-3 prostate = tested on: PC-3 prostate
RPMI-8226 leukemia = tested on: RPMI-8226 leukemia
RXF 393 renal = tested on: RXF 393 renal
SF-268 CNS = tested on: SF-268 CNS
SF-295 CNS = tested on: SF-295 CNS
SF-539 CNS = tested on: SF-539 CNS
SK-MEL-2 melanoma = tested on: SK-MEL-2 melanoma
SK-MEL-28 melanoma = tested on: SK-MEL-28 melanoma
SK-MEL-5 melanoma = tested on: SK-MEL-5 melanoma
SK-OV-3 ovarian = tested on: SK-OV-3 ovarian
SN12C renal = tested on: SN12C renal
SNB-19 CNS = tested on: SNB-19 CNS
SNB-75 CNS = tested on: SNB-75 CNS
SR leukemia = tested on: SR leukemia
SW-620 colon = tested on: SW-620 colon
T-47D breast = tested on: T-47D breast
TK-10 renal = tested on: TK-10 renal
U251 CNS = tested on: U251 CNS
UACC-257 melanoma = tested on: UACC-257 melanoma
UACC-62 melanoma = tested on: UACC-62 melanoma
UO-31 renal = tested on: UO-31 renal

Cn1cc(C2=C(Oc3ccccc3)C(=O)NC2=O)c2ccccc21
GI50 (786-0 renal): > 25 µM
TGI (786-0 renal): > 25 µM
GI50 (A498 renal): > 25 µM
TGI (A498 renal): > 25 µM
GI50 (A549 NSCLC): > 25 µM
TGI (A549 NSCLC): > 25 µM
GI50 (ACHN renal): > 25 µM
TGI (ACHN renal): > 25 µM
GI50 (BT-549 breast): > 25 µM
TGI (BT-549 breast): > 25 µM
GI50 (CAKI-1 renal): > 25 µM
TGI (CAKI-1 renal): > 25 µM
GI50 (CCRF-CEM leukemia): > 25 µM
TGI (CCRF-CEM leukemia): > 25 µM
GI50 (COLO 205 colon): > 25 µM
TGI (COLO 205 colon): > 25 µM
GI50 (DU-145 prostate): > 25 µM
TGI (DU-145 prostate): > 25 µM
GI50 (HCC-2998 colon): > 25 µM
TGI (HCC-2998 colon): > 25 µM
GI50 (HCT-116 colon): > 25 µM
TGI (HCT-116 colon): > 25 µM
GI50 (HCT-15 colon): > 25 µM
TGI (HCT-15 colon): > 25 µM
GI50 (HL-60(TB) leukemia): > 25 µM
TGI (HL-60(TB) leukemia): > 25 µM
GI50 (HOP-62 NSCLC): > 17.8 µM
TGI (HOP-62 NSCLC): > 25 µM
GI50 (HOP-92 NSCLC): 6.32 µM
TGI (HOP-92 NSCLC): > 25 µM
GI50 (HS 578T breast): > 25 µM
TGI (HS 578T breast): > 25 µM
GI50 (HT29 colon): > 25 µM
TGI (HT29 colon): > 25 µM
GI50 (IGROV1 ovarian): > 25 µM
TGI (IGROV1 ovarian): > 25 µM
GI50 (K-562 leukemia): > 25 µM
TGI (K-562 leukemia): > 25 µM
GI50 (KM12 colon): > 25 µM
TGI (KM12 colon): > 25 µM
GI50 (LOX IMVI melanoma): > 25 µM
TGI (LOX IMVI melanoma): > 25 µM
GI50 (M14 melanoma): > 25 µM
TGI (M14 melanoma): > 25 µM
GI50 (MALME-3M melanoma): > 25 µM
TGI (MALME-3M melanoma): > 25 µM
GI50 (MCF7 breast): > 25 µM
TGI (MCF7 breast): > 25 µM
GI50 (MDA-MB-231 breast): > 19.3 µM
TGI (MDA-MB-231 breast): > 25 µM
GI50 (MDA-MB-435): > 25 µM
TGI (MDA-MB-435): > 25 µM
GI50 (MOLT-4 leukemia): > 25 µM
TGI (MOLT-4 leukemia): > 25 µM
GI50 (NCI-H226 lung): > 25 µM
TGI (NCI-H226 lung): > 25 µM
GI50 (NCI-H23 lung): > 25 µM
TGI (NCI-H23 lung): > 25 µM
GI50 (NCI-H460 lung): > 25 µM
TGI (NCI-H460 lung): > 25 µM
GI50 (NCI-H522 lung): > 25 µM
TGI (NCI-H522 lung): > 25 µM
GI50 (NCI/ADR-RES ovarian): > 25 µM
TGI (NCI/ADR-RES ovarian): > 25 µM
GI50 (OVCAR-3 ovarian): > 25 µM
TGI (OVCAR-3 ovarian): > 25 µM
GI50 (OVCAR-4 ovarian): > 25 µM
TGI (OVCAR-4 ovarian): > 25 µM
GI50 (OVCAR-5 ovarian): > 25 µM
TGI (OVCAR-5 ovarian): > 25 µM
GI50 (OVCAR-8 ovarian): > 25 µM
TGI (OVCAR-8 ovarian): > 25 µM
GI50 (PC-3 prostate): > 25 µM
TGI (PC-3 prostate): > 25 µM
GI50 (RPMI-8226 leukemia): > 25 µM
TGI (RPMI-8226 leukemia): > 25 µM
GI50 (RXF 393 renal): > 25 µM
TGI (RXF 393 renal): > 25 µM
GI50 (SF-268 CNS): > 25 µM
TGI (SF-268 CNS): > 25 µM
GI50 (SF-295 CNS): > 25 µM
TGI (SF-295 CNS): > 25 µM
GI50 (SF-539 CNS): > 25 µM
TGI (SF-539 CNS): > 25 µM
GI50 (SK-MEL-2 melanoma): > 25 µM
TGI (SK-MEL-2 melanoma): > 25 µM
GI50 (SK-MEL-28 melanoma): > 25 µM
TGI (SK-MEL-28 melanoma): > 25 µM
GI50 (SK-MEL-5 melanoma): > 25 µM
TGI (SK-MEL-5 melanoma): > 25 µM
GI50 (SK-OV-3 ovarian): > 25 µM
TGI (SK-OV-3 ovarian): > 25 µM
GI50 (SN12C renal): > 25 µM
TGI (SN12C renal): > 25 µM
GI50 (SNB-19 CNS): > 25 µM
TGI (SNB-19 CNS): > 25 µM
GI50 (SNB-75 CNS): > 12.4 µM
TGI (SNB-75 CNS): > 25 µM
GI50 (SR leukemia): > 25 µM
TGI (SR leukemia): > 25 µM
GI50 (SW-620 colon): > 25 µM
TGI (SW-620 colon): > 25 µM
GI50 (T-47D breast): > 25 µM
TGI (T-47D breast): > 25 µM
GI50 (TK-10 renal): > 25 µM
TGI (TK-10 renal): > 25 µM
GI50 (U251 CNS): > 25 µM
TGI (U251 CNS): > 25 µM
GI50 (UACC-257 melanoma): > 25 µM
TGI (UACC-257 melanoma): > 25 µM
GI50 (UACC-62 melanoma): > 25 µM
TGI (UACC-62 melanoma): > 25 µM
GI50 (UO-31 renal): > 25 µM
TGI (UO-31 renal): > 25 µM

— PubChem BioAssay (NCI)
